Results: patent US8017391B2, “Human liver cancer cell line” (Univesity of Florida Research Foundation, Inc., priority 2006, dated 2011)

Tested on: LH86 cells or Huh7.5 cells
Test: Tumor growth of implanted HCV susceptible cell lines in immune deficient mice
Assay type: in vivo
Details: injection of human EGF to NOD-SCID mice bearing subcutaneous tumor cells
Protocol: To establish a mouse model that is capable of supporting the whole viral life cycle, the present inventors implanted HCV susceptible cell lines (LH86 cells of the present invention or Huh7.5 cells) to immune deficient mice (NOD-SCID). When 1×10^6 cells were injected subcutaneously into the mice, visible tumor (0.5 cm) formed in one week, and the tumor continued to grow to 5 cm in size in 6 weeks. For LH86 cells, 5×10^6 tumor cells must be injected to achieve a similar tumor growth pattern.

For “human EGF: human EGF injected to mice (NSDSECPLSHDGYCLHDGVCMYIEALDKYACNCVVGYIGERCQYRDLKWWELR; UniProt P01133 971-1023, looked up)”, the tumor growth rate was “significantly accelerate”.
